Results: patent US8765747B2, “Fused 2-aminothiazole compounds” (Dana-Farber Cancer Institute, Inc., priority 2009, dated 2014)

Experiments:
Ba/F3-T6701 = test: Relative IC50 in kit-expressing cell line; format: cell-based, murine; conditions: Mus musculus, 2.5-3 days, read-out: Relative IC50 range
Procedure: (§1) All compounds were initially dissolved in DMSO to make 10 mM stock solutions, and then were serially diluted to obtain final concentrations for in vitro experiments.
(§2) All cell lines were cultured with 5% CO2 at 37° C. in RPMI (Mediatech, Inc., Herndon, Va.) with 10% fetal calf serum (FCS) and supplemented with 1% L-glutamine. Parental Ba/F3 cells were similarly cultured with 15% WEHI-conditioned medium as a source of IL-3. Transfected cell lines were cultured in media supplemented with 1 mg/ml G418.

Ba/F3-PDGFRβ-T681I = test: Relative IC50 in PDGFR-expressing cell line; format: cell-based, murine; conditions: Mus musculus, 2.5-3 days, read-out: Relative IC50 range
Procedure: as §1, §2

Ba/F3-TEL/PDGFRβ = test: Relative IC50 in PDGFR-expressing cell line; format: cell-based, murine; conditions: Mus musculus, 2.5-3 days, read-out: Relative IC50 range
Procedure: as §1
(§3) Ba/F3.p210 cells were obtained by transfecting the IL-3-dependent marine hematopoietic Ba/F3 cell line with a pGD vector containing p210BCR-ABL (B2A2) cDNA (Daley and Baltimore, 1988; Sattler et al., 1996; Okuda et al., 1996). Murine hematopoietic 32D cells were transduced with retrovirus to express p210 Bcr-ABL (32D.p210 cells) (Matulonis et al., 1993); the 32D-T315I cell line was transfected by electroporation with the imatinib resistant BCR-ABL construct (pCI-neo Mammalian Expression Vector; Promega (#E1841) harboring the point mutation T315I (Weisberg et al., 2005). Ba/F3 cells were stably transfected by electroporation with imatinib-resistant BCR-ABL constructs (pCI-neo Mammalian Expression Vector; Promega (#E1841) harboring the point mutations T315I, F317L, F486S, and M351T; transfectants were selected for neomycin resistance and IL-3-independent growth (Weisberg et al., 2005). Ba/F3 cells were stably transfected by electroporation with BCR-ABL point mutants identified in a random mutagenesis screen for BCR-ABL point mutants conferring resistance to nilotinib: Q252H, E292K, Y253C, Y253H, E255K, and V289L (Ray et al., 2007). Ba/F3 cells were made to express Tel-PDGFRβ as described by Golub et al., 1994, and Carroll et al., 1996. Constructs of D842V-PDGFRα and V561D-PDGFRα cDNA cloned into pcDNA3.1 were stably transfected into Ba/F3 cells by electroporation, and cells were selected for neomycin resistance and IL3-independent growth as described by Weisberg et al., 2006.
as §2

Ba/F3-PDGFRα-V561D = test: Relative IC50 in PDGFR-expressing cell line; format: cell-based, murine; conditions: Mus musculus, 48 h, 2 day experiment, read-out: Relative IC50 range
Procedure: as §1, §3, §2

Ba/F3-PDGFRα-D842V = test: Relative IC50 in PDGFR-expressing cell line; format: cell-based, murine; conditions: Mus musculus, 48 h, 2 day experiment, read-out: Relative IC50 range
Procedure: as §1, §3, §2

32D-BCR-Abl [1] = test: Cell cycle analysis; format: cell-based, murine; conditions: 24 hours of treatment
Description: as §3, §2
(§4) Cell cycle analysis was performed using approximately 500,000 cells, which were centrifuged at 1500 rpm for 5 min, washed in PBS, and the pellet re-suspended in 500 μl of propidium iodide solution (50 μg/ml propidium iodide, 0.1% NP-40, 0.1% sodium citrate). The mixture was stored in the dark at 4° C. for a minimum of 15 min, and then analyzed by flow cytometry. Apoptosis of drug-treated cells was measured using the Annexin-V-Fluos Staining Kit (Boehringer Mannheim, Indianapolis).

32D-BCR-Abl-T3151 [2] = test: Cell cycle analysis; format: cell-based, murine; conditions: 24 hours of treatment
Description: as §3, §2, §4

Ba/F3-Y253C = test: Relative IC50 in BCR-Abl-expressing cell line; format: cell-based, murine; conditions: Mus musculus, 2.5-3 days, read-out: Relative IC50 range
Procedure: as §1
as §3, with “Ba/F3 cells were made to express Tel-PDGFRβ as described by Golub et al., 1994, and Carroll et al., 1996. Constructs of D842V-PDGFRα and V561D-PDGFRα cDNA cloned into pcDNA3.1 were stably transfected into Ba/F3 cells by electroporation, and cells were selected for neomycin resistance and IL3-independent growth as described by Weisberg et al., 2006.” left out

32D-BCR-Abl [3] = test: Apoptosis assay; format: cell-based, murine; design: unit not given here; conditions: approximately 3 days of treatment
Description: as §3, §2, §4
(§5) Cells cultured in the presence or absence of drug were washed 1× with phosphate-buffered saline (PBS) and centrifuged for 5 min at 1500 rpm. Washed cell pellets were re-suspended in 100 μl of 20% Annexin-V-fluorescein labeling reagent and 20% propidium iodide (PI) in HEPES buffer. Cells were incubated for 15 min at room temperature, followed by dilution with 0.8 ml of HEPES buffer. Samples were then analyzed by flow cytometry. As controls, cells were incubated for 15 min with PI alone, Annexin-V-fluorescein labeling reagent alone, or HEPES buffer, and then diluted with HEPES buffer and analyzed by flow cytometry.

32D-BCR-Abl-T3151 [4] = test: Apoptosis assay; format: cell-based, murine; design: unit not given here; conditions: approximately 3 days of treatment
Description: as §3, §2, §4, §5

HIPK1 = HIPK1 (Homo sapiens (Human), UniProt Q86Z02); test: KINOMEscan competition binding assay
Procedure: (§6) KINOMEscan™ (Ambit Biosciences, San Diego, Calif.), a high-throughput method for screening small molecular agents against a large panel of human kinases, was utilized for compound 2.
(§7) Kinases where significant binding affinity was detected at 10 μM were retested in dose-response format to determine a dissociation constant. The size of the red circle is proportion to Kd. […] The compound binds in the “DFG-out” conformation as evident by the position of F405. Ample space is available adjacent to the gatekeeper residue T338 providing a rationale for the tolerance for a larger amino acid at this position.

FLT1 = FLT1 (Homo sapiens (Human), UniProt P17948); test: KINOMEscan competition binding assay
Procedure: as §6, §7

CDK2 = CDK2 (Homo sapiens (Human), UniProt P24941); test: KINOMEscan competition binding assay
Procedure: as §6, §7

PDGFRA = PDGFRA (Homo sapiens (Human), UniProt P16234); test: KINOMEscan competition binding assay
Procedure: as §6, §7

CDK5 = CDK5 (Homo sapiens (Human), UniProt Q00535); test: KINOMEscan competition binding assay
Procedure: as §6, §7

CDK3 = CDK3 (Homo sapiens (Human), UniProt Q00526); test: KINOMEscan competition binding assay
Procedure: as §6, §7

p38-gamma = p38-gamma (Homo sapiens (Human), UniProt P53778); test: KINOMEscan competition binding assay
Procedure: as §6, §7

KIT = KIT (Homo sapiens (Human), UniProt P10721); test: KINOMEscan competition binding assay
Sequence of KIT (P10721 26-976): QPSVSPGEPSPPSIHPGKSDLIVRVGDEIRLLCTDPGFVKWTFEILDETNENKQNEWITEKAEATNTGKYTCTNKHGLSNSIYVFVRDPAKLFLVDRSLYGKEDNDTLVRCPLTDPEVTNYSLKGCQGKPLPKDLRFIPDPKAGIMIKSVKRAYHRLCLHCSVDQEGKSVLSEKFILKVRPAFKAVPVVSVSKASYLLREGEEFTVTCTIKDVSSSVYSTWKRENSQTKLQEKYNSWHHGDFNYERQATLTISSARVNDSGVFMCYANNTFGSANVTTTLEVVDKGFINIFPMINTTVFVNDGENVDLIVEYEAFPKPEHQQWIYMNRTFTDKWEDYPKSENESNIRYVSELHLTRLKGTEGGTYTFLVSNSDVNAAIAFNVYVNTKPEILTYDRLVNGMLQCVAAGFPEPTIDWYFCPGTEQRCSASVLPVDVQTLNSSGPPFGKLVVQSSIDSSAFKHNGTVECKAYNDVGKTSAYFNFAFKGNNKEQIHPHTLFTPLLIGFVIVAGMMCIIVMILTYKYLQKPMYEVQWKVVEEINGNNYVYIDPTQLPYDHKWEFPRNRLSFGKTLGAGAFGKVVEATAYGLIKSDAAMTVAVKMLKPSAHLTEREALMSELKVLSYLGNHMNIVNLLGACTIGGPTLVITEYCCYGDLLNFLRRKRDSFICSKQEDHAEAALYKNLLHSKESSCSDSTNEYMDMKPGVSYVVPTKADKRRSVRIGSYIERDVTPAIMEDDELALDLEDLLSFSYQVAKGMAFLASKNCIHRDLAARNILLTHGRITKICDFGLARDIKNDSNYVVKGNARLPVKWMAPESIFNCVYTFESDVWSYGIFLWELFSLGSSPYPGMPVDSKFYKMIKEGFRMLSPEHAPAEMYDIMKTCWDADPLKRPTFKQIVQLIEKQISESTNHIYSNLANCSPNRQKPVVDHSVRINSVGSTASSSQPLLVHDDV
Procedure: as §6, §7

TIE2 = TIE2 (Homo sapiens (Human), UniProt Q02763); test: KINOMEscan competition binding assay
Procedure: as §6, §7

PDGFRB = PDGFRB (Homo sapiens (Human), UniProt P09619); test: KINOMEscan competition binding assay
Procedure: as §6, §7

ABL1(T315I) = ABL1(T315I) (Homo sapiens (Human), UniProt P00519, T315I); test: KINOMEscan competition binding assay
Procedure: as §6, §7

FLT4 = FLT4 (Homo sapiens (Human), UniProt P35916); test: KINOMEscan competition binding assay
Procedure: as §6, §7

LOK = LOK (Homo sapiens (Human), UniProt O94804); test: KINOMEscan competition binding assay
Sequence of LOK (O94804 whole entry): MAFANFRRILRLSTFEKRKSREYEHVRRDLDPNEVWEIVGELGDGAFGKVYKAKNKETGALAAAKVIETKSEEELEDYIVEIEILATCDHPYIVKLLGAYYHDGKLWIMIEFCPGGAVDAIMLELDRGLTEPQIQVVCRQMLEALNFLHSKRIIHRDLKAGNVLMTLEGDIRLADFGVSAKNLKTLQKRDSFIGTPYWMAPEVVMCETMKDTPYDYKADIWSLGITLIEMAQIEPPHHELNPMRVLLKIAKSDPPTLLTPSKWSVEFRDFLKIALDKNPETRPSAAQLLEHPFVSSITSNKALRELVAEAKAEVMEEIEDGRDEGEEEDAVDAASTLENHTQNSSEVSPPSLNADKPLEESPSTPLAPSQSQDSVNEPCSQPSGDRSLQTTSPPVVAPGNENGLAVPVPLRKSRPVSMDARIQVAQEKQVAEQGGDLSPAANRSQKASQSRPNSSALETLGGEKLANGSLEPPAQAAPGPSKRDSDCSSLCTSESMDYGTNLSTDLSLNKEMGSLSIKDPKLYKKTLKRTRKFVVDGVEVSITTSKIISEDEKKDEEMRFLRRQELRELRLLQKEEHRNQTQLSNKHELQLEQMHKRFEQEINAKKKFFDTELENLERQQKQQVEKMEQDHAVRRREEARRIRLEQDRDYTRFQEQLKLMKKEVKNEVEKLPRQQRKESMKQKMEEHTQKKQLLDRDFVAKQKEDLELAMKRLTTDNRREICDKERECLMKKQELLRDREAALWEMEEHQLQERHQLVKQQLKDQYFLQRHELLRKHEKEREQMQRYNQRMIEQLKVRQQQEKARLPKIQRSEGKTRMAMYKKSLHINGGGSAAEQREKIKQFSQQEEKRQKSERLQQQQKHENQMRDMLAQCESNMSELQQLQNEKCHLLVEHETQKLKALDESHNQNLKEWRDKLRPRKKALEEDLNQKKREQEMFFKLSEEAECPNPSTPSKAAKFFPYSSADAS
Procedure: as §6, §7

DDR1 = DDR1 (Homo sapiens (Human), UniProt Q08345); test: KINOMEscan competition binding assay
Procedure: as §6, §7

FLT3 = FLT3 (Homo sapiens (Human), UniProt P36888); test: KINOMEscan competition binding assay
Sequence of FLT3 (P36888 27-993): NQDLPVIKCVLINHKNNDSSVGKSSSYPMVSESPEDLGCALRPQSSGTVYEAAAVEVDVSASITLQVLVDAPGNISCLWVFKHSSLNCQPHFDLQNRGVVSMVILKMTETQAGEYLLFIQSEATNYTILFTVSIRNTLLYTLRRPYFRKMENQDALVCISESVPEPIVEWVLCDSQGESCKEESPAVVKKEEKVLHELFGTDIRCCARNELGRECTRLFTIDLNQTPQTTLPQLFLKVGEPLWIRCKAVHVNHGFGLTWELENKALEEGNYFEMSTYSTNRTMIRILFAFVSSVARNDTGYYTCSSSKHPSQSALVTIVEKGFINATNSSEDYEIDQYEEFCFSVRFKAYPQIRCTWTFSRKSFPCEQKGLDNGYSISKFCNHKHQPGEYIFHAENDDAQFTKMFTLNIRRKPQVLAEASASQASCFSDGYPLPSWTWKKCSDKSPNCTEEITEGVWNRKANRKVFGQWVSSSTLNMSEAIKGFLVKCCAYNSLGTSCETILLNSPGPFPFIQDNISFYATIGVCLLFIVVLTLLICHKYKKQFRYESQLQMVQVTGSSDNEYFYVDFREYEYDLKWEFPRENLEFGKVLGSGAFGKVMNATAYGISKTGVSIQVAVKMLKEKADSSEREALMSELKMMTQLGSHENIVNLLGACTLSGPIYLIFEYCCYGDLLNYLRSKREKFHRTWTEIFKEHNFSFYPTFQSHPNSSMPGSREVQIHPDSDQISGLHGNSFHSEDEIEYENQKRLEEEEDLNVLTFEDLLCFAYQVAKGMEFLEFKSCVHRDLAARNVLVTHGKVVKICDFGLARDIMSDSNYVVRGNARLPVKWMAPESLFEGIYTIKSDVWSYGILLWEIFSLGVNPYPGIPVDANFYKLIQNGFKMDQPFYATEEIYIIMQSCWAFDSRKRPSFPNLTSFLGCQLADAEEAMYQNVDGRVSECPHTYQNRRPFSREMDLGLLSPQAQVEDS
Procedure: as §6, §7

RET = RET (Homo sapiens (Human), UniProt P07949); test: KINOMEscan competition binding assay
Procedure: as §6, §7

CDK7 = CDK7 (Homo sapiens (Human), UniProt P50613); test: KINOMEscan competition binding assay
Procedure: as §6, §7

BRAF = BRAF (Homo sapiens (Human), UniProt P15056); test: KINOMEscan competition binding assay
Sequence of BRAF (P15056 whole entry): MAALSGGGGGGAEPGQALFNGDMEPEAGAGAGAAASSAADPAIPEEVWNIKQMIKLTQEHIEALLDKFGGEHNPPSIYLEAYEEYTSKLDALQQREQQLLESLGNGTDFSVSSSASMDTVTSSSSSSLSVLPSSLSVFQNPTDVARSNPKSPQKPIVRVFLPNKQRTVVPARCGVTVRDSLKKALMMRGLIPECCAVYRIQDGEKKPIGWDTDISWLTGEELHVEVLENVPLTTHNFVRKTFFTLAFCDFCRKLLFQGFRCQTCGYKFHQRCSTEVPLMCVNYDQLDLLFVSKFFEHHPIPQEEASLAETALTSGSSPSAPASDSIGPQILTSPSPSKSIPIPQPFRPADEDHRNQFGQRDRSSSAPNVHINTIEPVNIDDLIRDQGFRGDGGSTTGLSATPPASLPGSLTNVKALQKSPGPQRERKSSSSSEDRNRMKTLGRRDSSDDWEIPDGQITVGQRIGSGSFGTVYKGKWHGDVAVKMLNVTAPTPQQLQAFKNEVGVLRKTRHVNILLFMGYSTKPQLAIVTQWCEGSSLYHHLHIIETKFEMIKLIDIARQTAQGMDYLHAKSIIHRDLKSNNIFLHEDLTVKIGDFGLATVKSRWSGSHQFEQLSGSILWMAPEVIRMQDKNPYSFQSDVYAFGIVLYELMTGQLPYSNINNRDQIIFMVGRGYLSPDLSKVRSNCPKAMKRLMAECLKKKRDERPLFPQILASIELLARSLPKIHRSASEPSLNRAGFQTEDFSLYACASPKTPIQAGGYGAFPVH
Procedure: as §6, §7

ABL1 = ABL1 (Homo sapiens (Human), UniProt P00519); test: KINOMEscan competition binding assay
Procedure: as §6, §7

VEGFR2 = VEGFR2 (Homo sapiens (Human), UniProt P35968); test: KINOMEscan competition binding assay
Sequence of VEGFR2 (P35968 20-1356): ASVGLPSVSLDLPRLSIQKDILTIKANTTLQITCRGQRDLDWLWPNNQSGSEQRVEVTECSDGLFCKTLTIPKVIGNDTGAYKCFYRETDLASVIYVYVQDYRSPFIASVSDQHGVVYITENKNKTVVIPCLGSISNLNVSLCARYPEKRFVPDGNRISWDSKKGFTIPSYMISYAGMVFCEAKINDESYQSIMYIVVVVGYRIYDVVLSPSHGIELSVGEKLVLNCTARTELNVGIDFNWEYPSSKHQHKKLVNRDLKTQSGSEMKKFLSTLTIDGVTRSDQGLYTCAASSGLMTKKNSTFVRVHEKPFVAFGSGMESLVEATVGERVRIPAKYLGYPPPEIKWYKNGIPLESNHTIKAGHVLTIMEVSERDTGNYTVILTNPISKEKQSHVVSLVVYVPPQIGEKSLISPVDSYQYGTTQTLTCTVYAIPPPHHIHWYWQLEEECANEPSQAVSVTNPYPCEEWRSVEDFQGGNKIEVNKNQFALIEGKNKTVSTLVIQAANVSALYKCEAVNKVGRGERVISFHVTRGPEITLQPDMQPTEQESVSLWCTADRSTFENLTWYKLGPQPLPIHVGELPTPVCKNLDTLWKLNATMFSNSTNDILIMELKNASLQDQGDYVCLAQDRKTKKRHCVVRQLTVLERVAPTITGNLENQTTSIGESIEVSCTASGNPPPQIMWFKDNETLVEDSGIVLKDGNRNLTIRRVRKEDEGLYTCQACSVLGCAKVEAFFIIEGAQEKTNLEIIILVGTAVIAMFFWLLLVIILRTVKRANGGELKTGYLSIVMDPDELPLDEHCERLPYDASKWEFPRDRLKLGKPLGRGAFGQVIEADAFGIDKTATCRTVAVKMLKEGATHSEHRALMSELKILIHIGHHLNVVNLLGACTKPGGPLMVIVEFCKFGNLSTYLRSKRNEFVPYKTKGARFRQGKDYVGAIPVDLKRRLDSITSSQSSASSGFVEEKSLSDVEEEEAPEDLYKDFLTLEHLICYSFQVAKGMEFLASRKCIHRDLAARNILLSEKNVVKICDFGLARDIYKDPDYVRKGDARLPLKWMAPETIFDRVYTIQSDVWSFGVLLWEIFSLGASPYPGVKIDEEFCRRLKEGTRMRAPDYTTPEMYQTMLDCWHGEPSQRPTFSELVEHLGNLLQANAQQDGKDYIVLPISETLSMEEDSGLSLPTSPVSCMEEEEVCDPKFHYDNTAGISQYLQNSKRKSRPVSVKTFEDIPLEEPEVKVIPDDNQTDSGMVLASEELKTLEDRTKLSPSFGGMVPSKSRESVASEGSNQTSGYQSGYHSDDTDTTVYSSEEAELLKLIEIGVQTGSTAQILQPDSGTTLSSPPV
Procedure: as §6, §7

- IC50 (Ba/F3-T6701): 250 nM
- IC50 (Ba/F3-PDGFRβ-T681I): > 1000 nM
- IC50 (Ba/F3-TEL/PDGFRβ): < 100 nM
- IC50 (Ba/F3-PDGFRα-V561D): > 1000 nM
- IC50 (Ba/F3-PDGFRα-D842V): 1000 nM
- IC50 (Ba/F3-Y253C): < 100 nM
- Kd (HIPK1): 34 nM
- Kd (FLT1): 74 nM
- Kd (CDK2): 840 nM
- Kd (PDGFRA): 7.7 nM
- Kd (CDK5): 150 nM
- Kd (CDK3): 250 nM
- Kd (p38-gamma): 100 nM
- Kd (KIT): 2.9 nM
- Kd (TIE2): 57 nM
- Kd (PDGFRB): 1.8 nM
- Kd (ABL1(T315I)): 1.2 nM
- Kd (FLT4): 31 nM
- Kd (LOK): 9.5 nM
- Kd (DDR1): 3.4 nM
- Kd (FLT3): 2.3 nM
- Kd (RET): 5.6 nM
- Kd (CDK7): 13 nM
- Kd (BRAF): 36 nM
- Kd (ABL1): 3.3 nM
- Kd (VEGFR2): 58 nM
Compound: CCN1CCN(Cc2ccc(NC(=O)c3cccc(-c4ccc5nc(NC(=O)C6CC6)sc5n4)c3)cc2C(F)(F)F)CC1 [Compound 2]
- % G0G1 (32D-BCR-Abl [1]; 0.01 μM): 42.62%
- % G2M (32D-BCR-Abl [1]; 0.01 μM): 9.56%
- % S (32D-BCR-Abl [1]; 0.01 μM): 47.82%
- % G0G1 (32D-BCR-Abl [1]; 0.1 μM): 76.52%
- % G2M (32D-BCR-Abl [1]; 0.1 μM): 3.78%
- % S (32D-BCR-Abl [1]; 0.1 μM): 19.71%
- % G0G1 (32D-BCR-Abl [1]; 1.0 μM): 77.44%
- % G2M (32D-BCR-Abl [1]; 1.0 μM): 9.07%
- % S (32D-BCR-Abl [1]; 1.0 μM): 13.49%
- % G0G1 (32D-BCR-Abl-T3151 [2]; 0.01 μM): 36.96%
- % G2M (32D-BCR-Abl-T3151 [2]; 0.01 μM): 22.64%
- % S (32D-BCR-Abl-T3151 [2]; 0.01 μM): 40.40%
- % G0G1 (32D-BCR-Abl-T3151 [2]; 0.1 μM): 46.35%
- % G2M (32D-BCR-Abl-T3151 [2]; 0.1 μM): 10.54%
- % S (32D-BCR-Abl-T3151 [2]; 0.1 μM): 43.11%
- % G0G1 (32D-BCR-Abl-T3151 [2]; 1.0 μM): 73.13%
- % G2M (32D-BCR-Abl-T3151 [2]; 1.0 μM): 9.29%
- % S (32D-BCR-Abl-T3151 [2]; 1.0 μM): 17.59%
- Apoptotic (32D-BCR-Abl [3]; 0.01 μM): 5.8
- Necrotic (32D-BCR-Abl [3]; 0.01 μM): 0.2
- Viable (32D-BCR-Abl [3]; 0.01 μM): 94
- Apoptotic (32D-BCR-Abl [3]; 0.1 μM): 52.3
- Necrotic (32D-BCR-Abl [3]; 0.1 μM): 0.6
- Viable (32D-BCR-Abl [3]; 0.1 μM): 47.1
- Apoptotic (32D-BCR-Abl [3]; 1.0 μM): 95.3
- Necrotic (32D-BCR-Abl [3]; 1.0 μM): 0.1
- Viable (32D-BCR-Abl [3]; 1.0 μM): 4.6
- Apoptotic (32D-BCR-Abl-T3151 [4]; 0.01 μM): 9.0
- Necrotic (32D-BCR-Abl-T3151 [4]; 0.01 μM): 0.1
- Viable (32D-BCR-Abl-T3151 [4]; 0.01 μM): 90.88
- Apoptotic (32D-BCR-Abl-T3151 [4]; 0.1 μM): 9.8
- Necrotic (32D-BCR-Abl-T3151 [4]; 0.1 μM): 0.3
- Viable (32D-BCR-Abl-T3151 [4]; 0.1 μM): 89.9
- Apoptotic (32D-BCR-Abl-T3151 [4]; 1.0 μM): 72.7
- Necrotic (32D-BCR-Abl-T3151 [4]; 1.0 μM): 0
- Viable (32D-BCR-Abl-T3151 [4]; 1.0 μM): 27.2
